From ChEMBL document CHEMBL3430912, “GSK Tres Cantos Anti-Kinetoplastid Screening (TCAKS) Data”

Assays:
[1] = system: Trypanosoma brucei brucei; assay: GSK_TCAKS: pIC50 Trypanosoma brucei viability assay using fluorescence intensity. Assay plates (1536-well) were prepared by dispensing 25nL of compound solution per well using an Echo acoustic dispenser (Labcyte).; format: functional, organism-based; details: Lister 427, 2 h
Leishmania donovani [2] = assay: (§1) GSK_TCAKS: pIC50 Leishmania donovani Imaging: Infected Macrophages. Assay plates (384-well) were prepared by adding 250nL of compound to each well. For single shot assay, the final compound concentration was 5 uM. […] Automated image analysis was performed with a script developed on Acapella High Content Imaging and Analysis Software (PerkinElmer). Output: Percent of infected macrophage cells were reported for each well.; format: functional, organism-based, Homo sapiens; details: THP-1
Leishmania donovani [3] = assay: as §1, with “THP-1 Host” for “Infected”, “THP-1 cell count” for “Percent of infected macrophage cells”; format: functional, organism-based, Homo sapiens
Trypanosoma cruzi [4] = assay: (§2) GSK_TCAKS: pIC50 Trypanosoma cruzi Imaging: Infected Cells. […] Cells were then washed once with PBS before infection. T. cruzi trypomastigotes, collected at days 5 to 8 after infection from LLC-MK2 parasite infected cultures, were allowed to swim out for 4h at 37C from a centrifuged pellet (2,500 rpm/10 min/room temperature). Trypomastigotes were then collected and counted in a CASY Cell Counter. Trypomastigotes, in supplemented DMEM, were added to H9c2 cultures in a multiplicity of infection of 1 and incubated for 18 h. Cells were washed once with PBS before incubation of the infected H9c2 monolayer with trypsin (Life-Technologies) to detach cells from the flask. Cells were counted in a CASY Cell Counter using a 150 um capillary and their density set at 5 * 10^4 cells per mL in supplemented assay DMEM. Infected H9c2 were dispensed into 384-well poly-lysine coated assay plates at 50uL per well using a Multidrop Combi dispenser. After seeding them, the plates were incubated at 37C, 5% CO2 for 72h. Cultures were then fixed and stained by addition of 50 uL of a solution containing 8% formaldehyde and 4 uM DRAQ5 DNA dye (BioStatus, UK) per well. […] Five images were collected per well for reliable statistical analysis. Automated image analysis was performed with a script developed on Acapella High Content Imaging and Analysis Software (PerkinElmer). Output: percentage of infected cells per well as a second infection marker.; format: functional, organism-based, Rattus norvegicus; details: H9c2, 4 h
[5] = GSK_TCAKS: pIC50 HepG2 human cell line viability assay using luminiscence. […] Seeding density was checked to ensure that new mono-layers were not more than 50% confluent at the time of harvesting. Cell suspension was added to 500 mL of the same medium at a final density of 1.2 * 10^5 cells/mL. This cell suspension was dispensed (25 uL, 3000 cells per well) into 384-well clear-bottom plates using a Multidrop Combi dispenser. Prior to addition of the cell suspension, the screening compounds (250 nL) were pre-dispensed into the plates with an Echo liquid handler. Plates were incubated for 48 h at 37C, 5% CO2. After incubation, plates equilibrated at room temperature for 30 min before proceeding to develop the luminescent signal. The signal developer, CellTiter-Glo Reagent, was allowed to equilibrate at room temperature for 30 min and added to the plates (25uL per well) using a Multidrop Combi dispenser. Plates were left for 10 min at room temperature for stabilization and then read using a ViewLux.; format: toxicity, cell-based
Leishmania donovani [6] = assay: as §1, with “Amastigotes/Macrophages.” for “Infected Macrophages.”, “Average number” for “Percent”, “amastigotes per” for “infected”, “cell” for “cells”; format: functional, organism-based, Homo sapiens; details: THP-1
Trypanosoma cruzi [7] = assay: as §2, with “H2C9” for “Trypanosoma cruzi”, “H9c2 Host Cardiomyocytes.” for “Infected Cells.”, “Number” for “percentage”, “H9c2 Host Cardiomyocytes nuclei to determine drug-related cytotoxicity.” for “infected cells per well as a second infection marker.”; format: functional, organism-based, Rattus norvegicus; details: H9c2, 4 h
[8] = target: Sterol 14-alpha demethylase (Trypanosoma cruzi (strain CL Brener), UniProt Q7Z1V1); assay: GSK_TCAKS: pIC50 CYP51 from Trypanosoma cruzi.; format: functional
[9] = system: Trypanosoma brucei brucei; assay: GSK_TCAKS: pIC50 Trypanosoma brucei viability assay using luminiscence. Assay plates (1536-well) were prepared. T. brucei cultures were harvested and counted in a CASY cell counter. A parasite suspension was prepared at a final concentration of 5 * 10^4 cells/mL in complete HMI9 medium and 6uL was dispensed to all wells containing compounds using a Multidrop Combi dispenser. 6uL of HMI9 media with 0.4% DMSO were dispensed to control columns. Plates were incubated for 24 h at 37C, 5% CO2 then tempered for 10 min at room temperature. ATP content was quantified by adding 4 uL of CellTiter-Glo Reagent (Promega) according to the manufacturer's instructions. Luminescence was measured using a ViewLux.; format: functional, organism-based; details: Lister 427, CASY
Leishmania donovani [10] = assay: GSK_TCAKS: pIC50 Leishmania donovani viability assay using fluorescence intensity. Assay plates (1536-well) were prepared by adding 30nL per well of compound. For single shot assay, the final compound concentration was 5uM. […] Briefly, eGFP LdBOB axenic amastigotes were harvested, fixed and counted in a CASY cell counter (Roche-Applied Science). A final concentration of 1.5 * 10^5 cells per well were prepared in amastigote media containing 500 U/mL penicillin/streptomycin (Invitrogen) and 6uL was dispensed to each experimental well using a Multidrop Combi dispenser (Thermo Scientific). 6uL of assay media was dispensed to control columns used as reference for 100% compound response. Following incubation for 72 h at 37C, 5% CO2, 2 uL of resazurin was added to each well at a final concentration of 0.5 mM in phosphate buffered saline (PBS) with IGEPAL (Sigma-Aldrich), 0.05% (v/v).; format: functional, organism-based
Trypanosoma cruzi [11] = assay: GSK_TCAKS: pIC50 Trypanosoma cruzi viability assay using beta-GAL activity. This assay was run at single shot at 5uM compound concentration per well. The biological reagents consisted of NIH-3T3 host cells and trypomastigotes parasitic cells; both cell types were set to a 3.3 * 10^5 cells/mL dilution in assay DMEM by means of a CASY cell counter device using a 60um capillary. 6 uL of the mixture were dispensed per well (about 1 * 10^3 host-cells and 1 * 10^3 parasites) with a Multidrop Combi dispenser. […] In all wells, the percentage of DMSO never exceeded 0.5%. Plates incubated for four days at 37C, 5% CO2. The substrate used for the assay fluorescence intensity (FLINT) readout was resorufin-beta-D-galactopiranoside (Sigma-Aldrich) at 5uM per well. It was diluted in PBS supplemented with the soft detergent Igepal (Fluka).; format: functional, organism-based, Mus musculus; details: Tulahuen, NIH3T3
Trypanosoma cruzi [12] = assay: GSK_TCAKS: pIC50 Trypanosoma cruzi Imaging: Amastigotes/Cell. […] Cells were then washed once with PBS before infection. T. cruzi trypomastigotes, collected at days 5 to 8 after infection from LLC-MK2 parasite infected cultures, were allowed to swim out for 4h at 37C from a centrifuged pellet (2,500 rpm/10 min/room temperature). Trypomastigotes were then collected and counted in a CASY Cell Counter. Trypomastigotes, in supplemented DMEM, were added to H9c2 cultures in a multiplicity of infection of 1 and incubated for 18 h. Cells were washed once with PBS before incubation of the infected H9c2 monolayer with trypsin (Life-Technologies) to detach cells from the flask. Cells were counted in a CASY Cell Counter using a 150 um capillary and their density set at 5 * 10^4 cells per mL in supplemented assay DMEM. Infected H9c2 were dispensed into 384-well poly-lysine coated assay plates at 50uL per well using a Multidrop Combi dispenser. After seeding them, the plates were incubated at 37C, 5% CO2 for 72h. Cultures were then fixed and stained by addition of 50 uL of a solution containing 8% formaldehyde and 4 uM DRAQ5 DNA dye (BioStatus, UK) per well. […] Five images were collected per well for reliable statistical analysis. Automated image analysis was performed with a script developed on Acapella High Content Imaging and Analysis Software (PerkinElmer). Output: number of amastigotes per cell as infection level measurement.; format: functional, organism-based, Rattus norvegicus; details: H9c2, 4 h

Chain of Sterol 14-alpha demethylase (Q7Z1V1 whole entry): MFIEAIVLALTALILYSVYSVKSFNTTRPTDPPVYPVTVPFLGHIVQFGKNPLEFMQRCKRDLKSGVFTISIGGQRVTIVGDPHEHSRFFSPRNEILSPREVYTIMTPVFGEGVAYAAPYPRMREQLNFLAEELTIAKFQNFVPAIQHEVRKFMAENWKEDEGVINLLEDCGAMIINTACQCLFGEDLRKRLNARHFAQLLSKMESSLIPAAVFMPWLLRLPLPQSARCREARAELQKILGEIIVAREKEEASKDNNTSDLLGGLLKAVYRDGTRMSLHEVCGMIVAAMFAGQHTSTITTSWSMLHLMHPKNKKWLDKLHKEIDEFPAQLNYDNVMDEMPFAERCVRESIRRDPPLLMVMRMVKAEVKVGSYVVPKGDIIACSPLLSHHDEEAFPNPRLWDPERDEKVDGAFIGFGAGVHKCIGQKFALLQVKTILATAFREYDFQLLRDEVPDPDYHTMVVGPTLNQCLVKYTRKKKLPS

SMILES	IC50 [1] [µM]	IC50 (Leishmania donovani [2]) [µM]	IC50 (Leishmania donovani [3]) [µM]	IC50 (Trypanosoma cruzi [4]) [µM]	IC50 at 48 h [5] [µM]	IC50 (Leishmania donovani [6]) [µM]	IC50 (Trypanosoma cruzi [7]) [µM]	IC50 [8] [µM]	IC50 [9] [µM]	IC50 (Leishmania donovani [10]) [µM]	IC50 (Trypanosoma cruzi [11]) [µM]	IC50 (Trypanosoma cruzi [12]) [µM]
COc1cc2c(cc1OC)[C@H]1[C@@H](C)c3ccc(OC)c(OC)c3CN1CC2	25.1	20	> 50.1	> 50.1	> 100	15.8	> 50.1	79.4	> 39.8	2.51	25.1	20
CCS(=O)(=O)Nc1ccc(C2=NN(C(=O)c3cccs3)C(c3ccccc3OC)C2)cc1 (stereo not drawn)	5.01	7.94	> 50.1	> 50.1	> 100	7.94	> 50.1	25.1	15.8	1.26	7.94	> 50.1
Cc1ccc(C)c(CN2C(=O)NC3(CCc4ccccc43)C2=O)c1 (stereo not drawn)	0.501	> 50.1	> 50.1	20	> 100	15.8	> 50.1	39.8	1	> 50.1	25.1	7.94
O=C(NCc1nnc2n1CCCCC2)c1csc(-c2ccccc2)n1	0.316	> 50.1	> 50.1	2	> 100	> 50.1	> 50.1	> 100	0.398	> 50.1	2.51	2
O=C(CSc1nnc(-c2ccc3c(c2)OCO3)o1)N(Cc1ccco1)CC(F)(F)F	> 39.8	7.94	> 50.1	3.16	> 100	3.16	> 50.1	25.1	> 39.8	15.8	10	2.51
CCN(CC)c1nc(N(C)C)nc2c1CN(Cc1ccccc1)CC2	20	6.31	39.8	20	63.1	3.98	> 50.1	10	20	7.94	6.31	3.98
OCC1CCCCN1c1cc(-c2ccccn2)nc(Nc2ccccc2)n1 (stereo not drawn)	5.01	1.26	20	3.98	31.6	1	0.501	79.4	6.31	3.16	0.794	2
O=C(Nc1nc2ccccc2[nH]1)c1ccc2[nH]cnc2c1	> 39.8	5.01	> 50.1	> 50.1	50.1	3.16	> 50.1	5.01	> 39.8	2.51	25.1	50.1
Cn1nccc1NC(=O)Cn1ccc(-c2ccncc2)n1	0.631	> 50.1	> 50.1	> 50.1	> 100	> 50.1	> 50.1	6.31	0.631	> 50.1	> 50.1	> 50.1
